Target: T1, R2351Q mPIEZO1 (Mus musculus, UniProt E2JF22, R2351Q)
T1 construct: expressed in transfected cells
Test: Intracellular Ca2+ measurement (fura-2), T-REx-293 cells stably transfected
Format: cell-based
Protocol: T-REx-293 cell line was transfected with pcDNA4/TO-mPIEZO1 constructs using Lipofectamine 2000 (Invitrogen) as above and treated with 200 μg.mL^−1 zeocin (InvivoGen) to select for stably transfected cells. At least two strongly expressing clonal cell lines were established and tested for each variant. All cell lines were maintained in Dulbecco’s Modified Eagle’s medium (Invitrogen) supplemented with 10% heat-inactivated fetal calf serum (Sigma-Aldrich), penicillin (50 units.mL^−1) and streptomycin (0.5 mg.mL^−1) (Sigma-Aldrich) and grown at 37°C in a humidified 5% CO2 incubator.
For intracellular Ca^2+ assays, cells were plated at 80–90% confluence in 96-well plates 24 h prior to recordings (6–8 × 10^4 cells per well). […] Cells were washed with SBS and incubated at room temperature for 20 min prior to recordings. Equal volumes of 2x concentrated compounds were injected to test for acute channel activation. Pre-incubation with compounds occurred during the 20 min prior to recordings. To expose cell membranes to hypo-osmolality, an equal volume of hypotonic SBS (containing only 35 mM NaCl) was injected onto the cells. Measurements were made on a fluorescence plate reader (Flexstation III, Molecular Devices) at room temperature (21 ± 2°C). Fura-2 was excited at 340 nm and 380 nm and emitted light collected at 510 nm, with measurements shown as the change in fluorescence (F) ratio (ΔF340/380).
KC41 (Dooku1) was prepared as described.[28] All purchased chemicals and solvents were used without further purification unless otherwise stated. All compounds were at least 95% pure by 1H NMR. 1H Nuclear Magnetic Resonance spectra were recorded at 500 MHz using a Bruker DRX 500 instrument or at 400 MHz using a Bruker DPX 400. 1H spectra are referenced based on the residual proton in the solvent (e.g., the CHCl3, 0.01% in 99.99% CDCl3). Coupling constants (J) are reported to the nearest 0.1 Hz. 13C NMR spectra were recorded at 125 MHz on 500 MHz spectrometers or at 100 MHz on 400 MHz spectrometers. LC-MS was performed on a Bruker Daltronics running a gradient of increasing acetonitrile (5–95%) in H2O both containing 0.1% formic acid at 1 mL.min^−1, on a short path C18 reverse phase column, detecting compounds with both a diode array detector and a Bruker mass spectrum analyser. HRMS was performed on a Bruker Daltonics micrOTOF using positive electrospray ionisation (ES+). Automated column chromatograph was carried out using a Biotage Isolera Four, using either Sfär Silica D or KP-Silica cartridges. HPLC was performed on an Agilent 1290 Infinity Series equipped with a UV detector and Hyperprep C18 reverse phase column. Key to NMR abbreviations: s (singlet), br s (broad singlet) d (doublet), dd (doublet of doublets), ddd (doublet of doublets of doublets), t (triplet), dt (doublet of triples), q (quartet), m (multiplet), ap. t (apparent triplet). For experiments, Yoda1 and its analogues were prepared as 10 mM stock solutions in 100% dimethyl sulfoxide (DMSO) before serial dilution in DMSO and final dilution in aqueous solution. Cells were exposed to 0.1% DMSO for all concentrations of the compounds from 0 to 10 μM.

T1 sequence (E2JF22 whole entry R2351Q): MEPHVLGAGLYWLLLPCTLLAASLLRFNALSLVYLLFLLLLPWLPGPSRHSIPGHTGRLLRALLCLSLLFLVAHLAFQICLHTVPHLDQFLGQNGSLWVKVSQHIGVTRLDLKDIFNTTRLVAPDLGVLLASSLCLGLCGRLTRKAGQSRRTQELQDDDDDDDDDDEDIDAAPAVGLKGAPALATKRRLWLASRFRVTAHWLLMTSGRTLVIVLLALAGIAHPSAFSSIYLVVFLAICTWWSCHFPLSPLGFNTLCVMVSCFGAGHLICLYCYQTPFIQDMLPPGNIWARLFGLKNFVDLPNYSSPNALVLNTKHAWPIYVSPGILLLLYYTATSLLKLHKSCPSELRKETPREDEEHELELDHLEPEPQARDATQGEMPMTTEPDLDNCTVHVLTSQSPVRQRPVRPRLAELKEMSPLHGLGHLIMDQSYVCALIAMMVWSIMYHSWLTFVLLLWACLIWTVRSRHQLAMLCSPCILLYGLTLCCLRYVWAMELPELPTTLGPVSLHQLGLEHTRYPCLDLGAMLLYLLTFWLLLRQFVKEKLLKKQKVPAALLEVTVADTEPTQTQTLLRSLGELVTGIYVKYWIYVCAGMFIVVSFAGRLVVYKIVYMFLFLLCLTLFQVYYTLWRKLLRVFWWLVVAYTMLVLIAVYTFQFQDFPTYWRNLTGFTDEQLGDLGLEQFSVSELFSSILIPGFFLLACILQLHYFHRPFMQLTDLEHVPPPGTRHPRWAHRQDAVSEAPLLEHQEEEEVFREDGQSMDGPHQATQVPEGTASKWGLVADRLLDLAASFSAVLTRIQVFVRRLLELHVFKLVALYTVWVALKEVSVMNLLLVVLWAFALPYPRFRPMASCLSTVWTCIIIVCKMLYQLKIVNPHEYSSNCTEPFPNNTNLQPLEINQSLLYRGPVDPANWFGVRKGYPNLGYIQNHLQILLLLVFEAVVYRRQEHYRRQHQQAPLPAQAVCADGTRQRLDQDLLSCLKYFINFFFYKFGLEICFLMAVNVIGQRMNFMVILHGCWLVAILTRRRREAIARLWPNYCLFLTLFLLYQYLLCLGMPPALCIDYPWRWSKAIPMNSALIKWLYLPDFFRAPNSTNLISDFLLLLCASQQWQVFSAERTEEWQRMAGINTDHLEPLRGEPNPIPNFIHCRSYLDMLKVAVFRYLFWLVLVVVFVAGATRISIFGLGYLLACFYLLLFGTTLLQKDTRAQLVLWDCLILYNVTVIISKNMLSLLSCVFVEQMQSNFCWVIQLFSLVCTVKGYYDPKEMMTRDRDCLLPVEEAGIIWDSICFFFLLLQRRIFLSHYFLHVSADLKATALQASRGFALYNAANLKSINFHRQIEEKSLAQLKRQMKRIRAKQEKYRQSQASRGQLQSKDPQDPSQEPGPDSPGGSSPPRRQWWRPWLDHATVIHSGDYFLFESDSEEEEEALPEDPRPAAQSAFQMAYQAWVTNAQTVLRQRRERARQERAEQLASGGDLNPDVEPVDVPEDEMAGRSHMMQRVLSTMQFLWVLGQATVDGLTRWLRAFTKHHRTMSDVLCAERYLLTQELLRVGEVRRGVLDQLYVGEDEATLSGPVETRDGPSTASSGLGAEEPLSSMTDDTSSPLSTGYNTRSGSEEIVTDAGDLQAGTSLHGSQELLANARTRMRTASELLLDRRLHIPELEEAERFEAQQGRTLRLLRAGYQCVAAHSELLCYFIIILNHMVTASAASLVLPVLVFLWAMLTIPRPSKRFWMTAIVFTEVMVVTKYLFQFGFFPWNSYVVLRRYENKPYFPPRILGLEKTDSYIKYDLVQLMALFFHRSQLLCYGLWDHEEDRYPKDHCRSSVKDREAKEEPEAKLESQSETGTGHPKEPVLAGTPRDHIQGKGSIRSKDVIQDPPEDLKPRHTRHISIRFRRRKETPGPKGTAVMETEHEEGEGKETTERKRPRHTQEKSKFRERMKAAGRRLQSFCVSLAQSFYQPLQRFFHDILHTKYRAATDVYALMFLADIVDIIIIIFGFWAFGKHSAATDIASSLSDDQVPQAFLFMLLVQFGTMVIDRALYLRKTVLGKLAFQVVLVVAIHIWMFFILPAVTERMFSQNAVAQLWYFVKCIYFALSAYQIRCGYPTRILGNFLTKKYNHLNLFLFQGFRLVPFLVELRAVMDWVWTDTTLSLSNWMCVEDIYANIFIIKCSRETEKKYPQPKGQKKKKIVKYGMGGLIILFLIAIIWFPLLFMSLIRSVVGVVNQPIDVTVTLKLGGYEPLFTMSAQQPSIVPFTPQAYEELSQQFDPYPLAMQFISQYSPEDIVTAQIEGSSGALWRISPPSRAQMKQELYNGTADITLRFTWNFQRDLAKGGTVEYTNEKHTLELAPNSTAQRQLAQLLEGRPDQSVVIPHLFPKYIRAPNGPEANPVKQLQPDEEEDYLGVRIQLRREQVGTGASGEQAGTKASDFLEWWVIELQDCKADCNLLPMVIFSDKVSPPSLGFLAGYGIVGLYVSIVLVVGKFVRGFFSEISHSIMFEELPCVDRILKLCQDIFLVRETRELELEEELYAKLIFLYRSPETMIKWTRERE

Clc1cccc(Cl)c1CSc1nnc(-c2cnccn2)s1 [Yoda1]
Mean (Ca2+ signal time course, Figure 4f) (R2351Q, 0.3 µM, time 0 s): -0.00579 | Mean (Ca2+ signal time course, Figure 4f) (R2351Q, 0.3 µM, time 5 s): 0.00313 | Mean (Ca2+ signal time course, Figure 4f) (R2351Q, 0.3 µM, time 10 s): -0.01466 | Mean (Ca2+ signal time course, Figure 4f) (R2351Q, 0.3 µM, time 15 s): 0.00749 | Mean (Ca2+ signal time course, Figure 4f) (R2351Q, 0.3 µM, time 20 s): 0.00732 | Mean (Ca2+ signal time course, Figure 4f) (R2351Q, 0.3 µM, time 25 s): 0.00251 | Mean (Ca2+ signal time course, Figure 4f) (R2351Q, 0.3 µM, time 30 s): -0.3502 | Mean (Ca2+ signal time course, Figure 4f) (R2351Q, 0.3 µM, time 35 s): 0.104 | Mean (Ca2+ signal time course, Figure 4f) (R2351Q, 0.3 µM, time 40 s): 0.09692 | Mean (Ca2+ signal time course, Figure 4f) (R2351Q, 0.3 µM, time 45 s): 0.1007 | Mean (Ca2+ signal time course, Figure 4f) (R2351Q, 0.3 µM, time 50 s): 0.1032 | Mean (Ca2+ signal time course, Figure 4f) (R2351Q, 0.3 µM, time 55 s): 0.1237 | Mean (Ca2+ signal time course, Figure 4f) (R2351Q, 0.3 µM, time 60 s): 0.09438 | Mean (Ca2+ signal time course, Figure 4f) (R2351Q, 0.3 µM, time 65 s): 0.1134 | Mean (Ca2+ signal time course, Figure 4f) (R2351Q, 0.3 µM, time 70 s): 0.1058 | Mean (Ca2+ signal time course, Figure 4f) (R2351Q, 0.3 µM, time 75 s): 0.1024 | Mean (Ca2+ signal time course, Figure 4f) (R2351Q, 0.3 µM, time 80 s): 0.1081 | Mean (Ca2+ signal time course, Figure 4f) (R2351Q, 0.3 µM, time 85 s): 0.0998 | Mean (Ca2+ signal time course, Figure 4f) (R2351Q, 0.3 µM, time 90 s): 0.09979 | Mean (Ca2+ signal time course, Figure 4f) (R2351Q, 0.3 µM, time 95 s): 0.1117 | Mean (Ca2+ signal time course, Figure 4f) (R2351Q, 0.3 µM, time 100 s): 0.1219 | Mean (Ca2+ signal time course, Figure 4f) (R2351Q, 0.3 µM, time 105 s): 0.1074 | Mean (Ca2+ signal time course, Figure 4f) (R2351Q, 0.3 µM, time 110 s): 0.1111 | Mean (Ca2+ signal time course, Figure 4f) (R2351Q, 0.3 µM, time 115 s): 0.1145 | Mean (Ca2+ signal time course, Figure 4f) (R2351Q, 0.3 µM, time 120 s): 0.1043 | Mean (Ca2+ signal time course, Figure 4f) (R2351Q, 0.3 µM, time 125 s): 0.1036 | Mean (Ca2+ signal time course, Figure 4f) (R2351Q, 0.3 µM, time 130 s): 0.08711 | Mean (Ca2+ signal time course, Figure 4f) (R2351Q, 3 µM, time 0 s): -0.0026 | Mean (Ca2+ signal time course, Figure 4f) (R2351Q, 3 µM, time 5 s): -0.00676 | Mean (Ca2+ signal time course, Figure 4f) (R2351Q, 3 µM, time 10 s): -0.01186 | Mean (Ca2+ signal time course, Figure 4f) (R2351Q, 3 µM, time 15 s): -0.00542 | Mean (Ca2+ signal time course, Figure 4f) (R2351Q, 3 µM, time 20 s): 0.01045 | Mean (Ca2+ signal time course, Figure 4f) (R2351Q, 3 µM, time 25 s): 0.0162 | Mean (Ca2+ signal time course, Figure 4f) (R2351Q, 3 µM, time 30 s): -0.5301 | Mean (Ca2+ signal time course, Figure 4f) (R2351Q, 3 µM, time 35 s): -0.09017 | Mean (Ca2+ signal time course, Figure 4f) (R2351Q, 3 µM, time 40 s): 0.3419 | Mean (Ca2+ signal time course, Figure 4f) (R2351Q, 3 µM, time 45 s): 0.4568 | Mean (Ca2+ signal time course, Figure 4f) (R2351Q, 3 µM, time 50 s): 0.5783 | Mean (Ca2+ signal time course, Figure 4f) (R2351Q, 3 µM, time 55 s): 0.623 | Mean (Ca2+ signal time course, Figure 4f) (R2351Q, 3 µM, time 60 s): 0.705 | Mean (Ca2+ signal time course, Figure 4f) (R2351Q, 3 µM, time 65 s): 0.7592 | Mean (Ca2+ signal time course, Figure 4f) (R2351Q, 3 µM, time 70 s): 0.7946 | Mean (Ca2+ signal time course, Figure 4f) (R2351Q, 3 µM, time 75 s): 0.8127 | Mean (Ca2+ signal time course, Figure 4f) (R2351Q, 3 µM, time 80 s): 0.8608 | Mean (Ca2+ signal time course, Figure 4f) (R2351Q, 3 µM, time 85 s): 0.9118 | Mean (Ca2+ signal time course, Figure 4f) (R2351Q, 3 µM, time 90 s): 0.9125 | Mean (Ca2+ signal time course, Figure 4f) (R2351Q, 3 µM, time 95 s): 0.9634 | Mean (Ca2+ signal time course, Figure 4f) (R2351Q, 3 µM, time 100 s): 1.007 | Mean (Ca2+ signal time course, Figure 4f) (R2351Q, 3 µM, time 105 s): 0.9869 | Mean (Ca2+ signal time course, Figure 4f) (R2351Q, 3 µM, time 110 s): 1.018 | Mean (Ca2+ signal time course, Figure 4f) (R2351Q, 3 µM, time 115 s): 0.9551 | Mean (Ca2+ signal time course, Figure 4f) (R2351Q, 3 µM, time 120 s): 0.9921 | Mean (Ca2+ signal time course, Figure 4f) (R2351Q, 3 µM, time 125 s): 1.006 | Mean (Ca2+ signal time course, Figure 4f) (R2351Q, 3 µM, time 130 s): 0.9688 | Mean normalise fluorescence (R2351Q, 20 min exposure, Yoda1 0.03 µM, Figure 4d): 0.08092 | Mean normalise fluorescence (R2351Q, 20 min exposure, Yoda1 0.1 µM, Figure 4d): -0.0159 | Mean normalise fluorescence (R2351Q, 20 min exposure, Yoda1 0.3 µM, Figure 4d): 0.3248 | Mean normalise fluorescence (R2351Q, 20 min exposure, Yoda1 1 µM, Figure 4d): 0.9747 | Mean normalise fluorescence (R2351Q, 20 min exposure, Yoda1 3 µM, Figure 4d): 1 | Mean normalise fluorescence (R2351Q, 20 min exposure, Yoda1 10 µM, Figure 4d): 0.9987 | EC50 (long (20 min) exposure, normalized to 3 μM Yoda1): 420 nM | Mean normalise fluorescence (short 1.5-min exposure, 0.03 µM): 0.00392 | Mean normalise fluorescence (short 1.5-min exposure, 0.1 µM): 5.49E-04 | Mean normalise fluorescence (short 1.5-min exposure, 0.3 µM): 0.02154 | Mean normalise fluorescence (short 1.5-min exposure, 1 µM): 0.1259 | Mean normalise fluorescence (short 1.5-min exposure, 3 µM): 0.401 | Mean normalise fluorescence (short 1.5-min exposure, 5 µM): 0.6595 | Mean normalise fluorescence (short 1.5-min exposure, 10 µM): 1 | Effect on mPIEZO1 channel function (versus WT): loss of MA: LOF; reduced Y1 potency

Reference: publication PMC12337661, “PIEZO1 mechanical insensitivity in generalized lymphatic dysplasia with the potential for pharmacological rescue” (iScience, 2025)
